Assay results taken from ChEMBL document CHEMBL6121019, “Design, synthesis and biological evaluation of bisnoralcohol derivatives as novel IRF4 inhibitors for the treatment of multiple myeloma” (Eur J Med Chem, 2025).
Active and inactive are the calls of the source. The calls are words filed in the database; no cut-off is given here.

Experiments:
[1] = molecular target: T1, Interferon regulatory factor 4 (Homo sapiens, UniProt Q15306); assay: Inhibition of IRF4 (unknown origin) incubated for 1 hr by fluorescence polarization assay
T1 sequence (Q15306 whole entry): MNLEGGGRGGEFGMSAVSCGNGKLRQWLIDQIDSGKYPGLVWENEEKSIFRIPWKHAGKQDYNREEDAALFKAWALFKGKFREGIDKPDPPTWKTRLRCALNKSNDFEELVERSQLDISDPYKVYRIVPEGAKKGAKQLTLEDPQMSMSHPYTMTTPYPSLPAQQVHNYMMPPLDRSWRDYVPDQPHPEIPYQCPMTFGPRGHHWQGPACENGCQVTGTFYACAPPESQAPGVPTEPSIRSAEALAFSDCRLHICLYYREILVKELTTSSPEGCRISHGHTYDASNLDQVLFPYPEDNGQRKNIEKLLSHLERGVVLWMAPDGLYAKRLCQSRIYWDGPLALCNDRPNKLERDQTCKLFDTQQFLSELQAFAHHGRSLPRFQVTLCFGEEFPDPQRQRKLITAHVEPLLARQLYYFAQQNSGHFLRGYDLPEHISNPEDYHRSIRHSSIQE

NCI-H929 [2] = assay: Antitumor activity against human NCI-H929 cells xenografted in Balb/C nude mouse model assessed as inhibition of inhibition of cyclin D1 expression at 25 mg/kg by Western blot analysis; format: functional, organism-based
NCI-H929 [3] = assay: Antitumor activity against human NCI-H929 cells xenografted in Balb/C nude mouse model assessed as inhibition of ERK phosphorylation level at 25 mg/kg by Western blot analysis; format: functional, organism-based
[4] = Antiproliferative activity against human HAF cells assessed as inhibition of cell viability measured after 72 hrs by MTS assay; format: toxicity, cell-based
[5] = Toxicity in Balb/C nude mouse assessed as change in body weight at 25 mg/kg administered once daily and measured every three days for 34 days; format: organism-based; conditions: in vivo, 816 h, time 34 day
NCI-H929 [6] = assay: Antiproliferative activity against human NCI-H929 cells assessed as inhibition of cell viability measured after 72 hrs by MTS assay; format: functional, cell-based; conditions: NCI-H929, 72 h
NCI-H929 [7] = assay: Antitumor activity against human NCI-H929 cells xenografted in Balb/C nude mouse model assessed as increase in gammaH2AX expression at 25 mg/kg by Western blot analysis; format: functional, organism-based
[8] = Antiproliferative activity against human MM1.R cells assessed as inhibition of cell viability measured after 72 hrs by MTS assay; format: functional, cell-based; conditions: MM.1R
NCI-H929 [9] = assay: Antitumor activity against human NCI-H929 cells xenografted in Balb/C nude mouse model assessed as reduction in Ki67 expression at 25 mg/kg by immunohistochemical staining based analysis; format: functional, organism-based
[10] = Antiproliferative activity against human HaCaT cells assessed as inhibition of cell viability measured after 72 hrs by MTS assay; format: toxicity, cell-based
[11] = Toxicity in Balb/C nude mouse assessed as side effects at 25 mg/kg administered once daily and measured every three days for 34 days by H and E staining based analysis; format: organism-based; conditions: in vivo, 816 h, time 34 day
[12] = Toxicity in Balb/C nude mouse assessed as changes in main organ at 25 mg/kg administered once daily and measured every three days for 34 days by H and E staining based analysis; format: organism-based; conditions: in vivo, 816 h, time 34 day
NCI-H929 [13] = assay: Antitumor activity against human NCI-H929 cells xenografted in Balb/C nude mouse model assessed as inhibition of Akt phosphorylation level at 25 mg/kg by Western blot analysis; format: functional, organism-based
RPMI-8226 = assay: Antiproliferative activity against human RPMI-8226 cells assessed as inhibition of cell viability measured after 72 hrs by MTS assay; format: functional, cell-based; conditions: RPMI-8226, 72 h
NCI-H929 [14] = assay: Antitumor activity against human NCI-H929 cells xenografted in Balb/C nude mouse model assessed as inhibition of […] expression at 25 mg/kg by Western blot analysis; format: functional, organism-based
[15] = Selectivity ratio IC50 for human RPMI-8226 cells to IC50 for human MM1.R cells; format: toxicity
[16] = Selectivity ratio IC50 for human RPMI-8226 cells to IC50 for human NCI-H929 cells; format: toxicity

Nc1cccc2c1CN(C1CCC(=O)NC1=O)C2=O (stereo unspecified) [LENALIDOMIDE]
IC50 [1]: > 20 µM
Activity (NCI-H929 [2]): Active
Activity (NCI-H929 [3]): Active
IC50 at 72 h [4]: > 100 µM
Activity [5]: Non-toxic
IC50 (NCI-H929 [6]): 2.39 µM
Activity (NCI-H929 [7]): Active
IC50 [8]: 4.52 µM
Activity (NCI-H929 [9]): inactive
IC50 at 72 h [10]: > 100 µM
Activity [11]: Non-toxic
Activity [12]: Non-toxic
Activity (NCI-H929 [13]): Active
IC50 (RPMI-8226): 50.2 µM
Activity (NCI-H929 [14]): Active

C[C@H](C(=O)n1ccnc1)[C@H]1CC[C@H]2[C@@H]3C(=O)C=C4C(C)(C)C(=O)C(C#N)=C[C@]4(C)[C@H]3CC[C@]12C
IC50 [1]: 3.88 µM
IC50 at 72 h [4]: > 100 µM
IC50 (NCI-H929 [6]): 2.57 µM
IC50 [8]: 4.46 µM
IC50 at 72 h [10]: > 100 µM
Ratio IC50 [15]: 1.7
Ratio IC50 [16]: 3
IC50 (RPMI-8226): 7.65 µM

C[C@H](C(=O)Nc1ccc(O)cc1)[C@H]1CC[C@H]2[C@@H]3C(=O)C=C4C(C)(C)C(=O)C(C#N)=C[C@]4(C)[C@H]3CC[C@]12C
IC50 [1]: 3.52 µM
IC50 at 72 h [4]: > 100 µM
IC50 (NCI-H929 [6]): 0.49 µM
IC50 [8]: 0.57 µM
IC50 at 72 h [10]: > 100 µM
Ratio IC50 [15]: 4.3
Ratio IC50 [16]: 5
IC50 (RPMI-8226): 2.45 µM
